Source: patent US20030225152A1, “3-(Arylamino)methylene-1, 3-dihydro-2h-indol-2-ones as kinase inhibitors” (priority 2001, published 2003)

Test system: VEGF induced increases in intracellular calcium levels in HUVEC (human umbilical vein endothelial cells)
Assay: VEGF Stimulated Ca++ Signal in vitro (FLIPR)
Format: cell-based
Settings: VEGF 5 ng/mL; for inhibition at 10 µM / IC50: Homo sapiens; for IC50: 0.01 to 10.0 μM
Description: VEGF Stimulated Ca^++ Signal in vitro
Automated FLIPR (Fluorometric Imaging Plate Reader) technology was used to screen for inhibitors of VEGF induced increases in intracellular calcium levels in fluorescent dye loaded endothelial cells. HUVEC (human umbilical vein endothelial cells) (Clonetics) were seeded in 96-well fibronectin coated black-walled plates overnight at 37° C./5%CO2. Cells were loaded with calcium indicator Fluo-4 for 45 minutes at 37° C. Cells were washed 4 times (Original Cell Wash, Labsystems) to remove extracellular dye. Test compounds were reconstituted in 100% DMSO and added to the cells to give a final DMSO concentration of 0.1%. For screening, cells were pre-incubated with test agents for 30 minutes, at a single concentration (10 μM) or at concentrations ranging from 0.01 to 10.0 μM followed by VEGF stimulation (5 ng/mL). Changes in fluorescence at 516 nm were measured simultaneously in all 96 wells using a cooled CCD camera. Data were generated by determining max-min fluorescence levels for unstimulated, stimulated, and drug treated samples. IC50 values for test compounds were calculated from % inhibition of VEGF stimulated responses in the absence of inhibitor.

Question: How did the “VEGF Stimulated Ca^++ signal assay % inhibition @ 10 μM” value turn out when “3-[(Bis-trifluoromethyl-phenylamino)-methylene]-1,3-dihydro-indol-2-one [Example 46]” was run?
Answer: The value was −4.00%.

Question: “3-[(Chloro-trifluoromethyl-phenylamino)-methylene]-1,3-dihydro-indol-2-one [Example 45]” was tested. Which “VEGF Stimulated Ca^++ signal assay % inhibition @ 10 μM” value did it give?
Answer: The value was 50.00%.

Question: For “3-[(Fluoro-trifluoromethyl-phenylamino)-methylene]-1,3-dihydro-indol-2-one [Example 47]”, which “VEGF Stimulated Ca^++ signal assay % inhibition @ 10 μM” value is on record?
Answer: Its value is −2.50%.

Question: Which “VEGF Stimulated Ca^++ signal assay % inhibition @ 10 μM” value does the source give for “3-[(Methyl-trifluoromethyl-phenylamino)-methylene]-1,3-dihydro-indol-2-one [Example 56]” here?
Answer: The value was 21.00%.

Question: Which “VEGF Stimulated Ca^++ signal assay % inhibition @ 10 μM” value does the source give for “4-[(2-Oxo-1,2-dihydro-indol-3-ylidenemethyl)-amino]-phospate [Example 84]” here?
Answer: The value was 11.50%.

Question: For “5-Chloro-3-[(phenylamino)-methylene]-1,3-dihydro-indol-2-one benzothiazol-6-yl-amine [Example 101]”, which “VEGF Stimulated Ca^++ signal assay % inhibition @ 10 μM” value is on record?
Answer: The value was 22.00%.

Question: With O=C1Nc2ccccc2C1=CNc1ccccc1 [Example 1, 3-Phenylaminomethylene-1,3-dihydro-indol-2-one] as the molecule, how does the inhibition at 10 µM read?
Answer: The inhibition at 10 µM was 92%.

Question: And the IC50?
Answer: The IC50 was 4.05 µM.

Question: O=C1Nc2ccccc2C1=CNc1cccc(Br)c1 [Example 2, 3-[(3-Bromo-phenylamino)-methylene]-1,3-dihydro-indol-2-one] was tested. Which inhibition at 10 µM did it give?
Answer: The inhibition at 10 µM was -0.5%.

Question: With O=C1Nc2ccccc2C1CNc1ccc(Br)cc1 (stereo not drawn) [Example 3, 3-[(4-Bromo-phenylamino)-methyl]-1,3-dihydro-indol-2-one] as the molecule, how does the inhibition at 10 µM read?
Answer: The inhibition at 10 µM was 3.5%.

Question: How did the inhibition at 10 µM turn out when O=C1Nc2ccccc2C1CNc1cccc(Br)c1 (stereo not drawn) [Example 4, 3-[(3-Bromo-phenylamino)-methyl]-1,3-dihydro-indol-2-one] was run?
Answer: The inhibition at 10 µM was 16.5%.

Question: How did the “VEGF Stimulated Ca^++ signal assay % inhibition @ 10 μM” value turn out when CCOC(=O)c1ccc(NC=C2C(=O)Nc3ccccc32)cc1 [Example 8, 4-[(2-Oxo-1,3-dihydro-indol-3-ylididenemethyl)-amino]-benzoic acid ethyl ester] was run?
Answer: Its value is 9%.

Question: With CCc1ccccc1NC=C1C(=O)Nc2ccccc21 [Example 9, 3-[(2-Ethyl-phenylamino)-methylene}-1,3-dihydro-indol-2-one] as the molecule, how does the inhibition at 10 µM read?
Answer: The inhibition at 10 µM was 13.5%.

Question: Which results are given for Cc1ccc(NC=C2C(=O)Nc3ccccc32)cc1F [Example 10, 3-[(3-Fluoro-4-methyl-phenylamino)-methylene]-1,3-dihydro-indol-2-one]?
Answer: inhibition at 10 µM: 46%; IC50: ≥ 10 µM

Question: For Cc1c(F)cccc1NC=C1C(=O)Nc2ccccc21 [Example 11, 3-[(3-Fluoro-2-methyl-phenylamino)-methylene]-1,3-dihydro-indol-2-one], which inhibition at 10 µM is on record?
Answer: The inhibition at 10 µM was -14%.

Question: Which results are given for O=C1Nc2ccccc2C1=CNc1ccc(O)cc1 [Example 12, 3-[(4-Hydroxy-phenylamino)-methylene]-1,3-dihydro-indol-2-one]?
Answer: inhibition at 10 µM: 94.2%; IC50: 1.07 µM

Question: With O=C1Nc2ccccc2C1=CNc1ccc(O)c(Cl)c1 [Example 13, 3-[(3-Chloro-4-hydroxy-phenylamino)-methylene]-1,3-dihydro-indol-2-one] as the molecule, how does the inhibition at 10 µM read?
Answer: Its inhibition at 10 µM is -12.5%.

Question: Which inhibition at 10 µM does the source give for Cc1cc(F)ccc1NC=C1C(=O)Nc2ccccc21 [Example 14, 3-[(4-Fluoro-2-methyl-phenylamino)-methylene]-1,3-dihydro-indol-2-one] here?
Answer: The inhibition at 10 µM was -14%.

Question: Cc1ccc(NC=C2C(=O)Nc3ccccc32)cc1 [Example 18, 3-(p-Tolylamino-methylene)-1,3-dihydro-indol-2-one] was tested. Which inhibition at 10 µM did it give?
Answer: Its inhibition at 10 µM is 35.5%.

Question: Cc1cc(C)cc(NC=C2C(=O)Nc3ccccc32)c1 [Example 19, 3-[(3,5-Dimethyl-phenylamino)-methylene]-1,3-dihydro-indol-2-one] was tested. Which inhibition at 10 µM did it give?
Answer: The inhibition at 10 µM was 14%.

Question: How did the inhibition at 10 µM turn out when O=C1Nc2ccccc2C1=CNc1cccc(C(F)(F)F)c1 [Example 22, 3-[(3-Trifluoromethyl-phenylamino)-methylene]-1,3-dihydro-indol-2-one] was run?
Answer: The inhibition at 10 µM was 22.5%.

Question: How did the inhibition at 10 µM turn out when O=C1Nc2ccccc2C1=CNc1ccc2c(c1)CCC2 [Example 23, 3-(Indan-5-ylaminomethylene)-1,3-dihydro-indol-2-one] was run?
Answer: The inhibition at 10 µM was 42%.
